Measured values: patent US20260262643A1, “HERBICIDAL BENZOXAZINES” (FMC CORPORATION, priority 2022, published 2026)

Assays:
barnyardgrass [1] = assay: Test C preemergence; format: in vivo, Echinochloa crusgalli; conditions: for Barnyardgrass plant response rating: preemergence, 0 to 100 scale (0 no effect, 100 complete control)
Outline: (§1)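 Soil-applied (pre) and foliar (post, 1–2 leaf, 2–10 cm) sprays; surfactant-containing non-phytotoxic solvent vehicle; loam/sand substrate. Readout: visual % control at 10 d, greenhouse, versus untreated.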

blackgrass [2] = assay: Test C preemergence; format: in vivo, Alopecurus myosuroides; conditions: for Blackgrass plant response rating: preemergence, 0 to 100 scale (0 no effect, 100 complete control)
Outline: as §1

corn [3] = assay: Test C preemergence; format: in vivo, Zea mays; conditions: for Corn plant response rating: preemergence, 0 to 100 scale (0 no effect, 100 complete control)
Outline: as §1

green foxtail [4] = assay: Test C preemergence; format: in vivo, Setaria viridis; conditions: for Foxtail, Green plant response rating: preemergence, 0 to 100 scale (0 no effect, 100 complete control)
Outline: as §1

kochia [5] = assay: Test C preemergence; format: in vivo, Bassia scoparia; conditions: for Kochia plant response rating: preemergence, 0 to 100 scale (0 no effect, 100 complete control)
Outline: as §1

oat, wild [6] = assay: Test C preemergence; format: in vivo, Avena fatua; conditions: for Oat, Wild plant response rating: preemergence, 0 to 100 scale (0 no effect, 100 complete control)
Outline: as §1

pigweed, palmer [7] = assay: Test C preemergence; format: in vivo, Amaranthus palmeri; conditions: for Pigweed, Palmer plant response rating: preemergence, 0 to 100 scale (0 no effect, 100 complete control)
Outline: as §1

ragweed [8] = assay: Test C preemergence; format: in vivo, Ambrosia artemisiifolia; conditions: for Ragweed plant response rating: preemergence, 0 to 100 scale (0 no effect, 100 complete control)
Outline: as §1

ryegrass, Italian [9] = assay: Test C preemergence; format: in vivo, Lolium multiflorum; conditions: for Ryegrass, Italian plant response rating: preemergence, 0 to 100 scale (0 no effect, 100 complete control)
Outline: as §1

soybean [10] = assay: Test C preemergence; format: in vivo, Glycine max; conditions: for Soybean plant response rating: preemergence, 0 to 100 scale (0 no effect, 100 complete control)
Outline: as §1

wheat [11] = assay: Test C preemergence; format: in vivo, Triticum aestivum; conditions: for Wheat plant response rating: preemergence, 0 to 100 scale (0 no effect, 100 complete control)
Outline: as §1

barnyardgrass [12] = assay: Test C postemergence; format: in vivo, Echinochloa crusgalli; conditions: 10 days
Outline: as §1

blackgrass [13] = assay: Test C postemergence; format: in vivo, Alopecurus myosuroides; conditions: 10 days
Outline: as §1

corn [14] = assay: Test C postemergence; format: in vivo, Zea mays; conditions: 10 days
Outline: as §1

kochia [15] = assay: Test C postemergence; format: in vivo, Bassia scoparia; conditions: 10 days
Outline: as §1

oat, wild [16] = assay: Test C postemergence; format: in vivo, Avena fatua; conditions: 10 days
Outline: as §1

pigweed, palmer [17] = assay: Test C postemergence; format: in vivo, Amaranthus palmeri; conditions: 10 days
Outline: as §1

ragweed [18] = assay: Test C postemergence; format: in vivo, Ambrosia artemisiifolia; conditions: 10 days
Outline: as §1

ryegrass, Italian [19] = assay: Test C postemergence; format: in vivo, Lolium multiflorum; conditions: 10 days
Outline: as §1

soybean [20] = assay: Test C postemergence; format: in vivo, Glycine max; conditions: 10 days
Outline: as §1

wheat [21] = assay: Test C postemergence; format: in vivo, Triticum aestivum; conditions: 10 days
Outline: as §1

galium = assay: Test C postemergence; format: in vivo, Galium aparine; conditions: 10 days
Outline: as §1

horseweed = assay: Test C postemergence; format: in vivo, Erigeron canadensis; conditions: 10 days
Outline: as §1

barnyardgrass [22] = assay: Test D flooded paddy test; format: in vivo, Echinochloa crus-galli; conditions: 250 g ai/ha, applied to paddy water, visual rating after 13 to 14 days, scale 0 to 100 (0 no effect, 100 complete control)
Method: (§2) Plant species in the flooded paddy test selected from barnyardgrass (Echinochloa crus-galli), ducksalad (Heteranthera limosa), rice (Oryza sativa), and sedge, umbrella (small-flower umbrella sedge, Cyperus difformis) were grown to the 2-leaf stage for testing. At time of treatment, test pots were flooded to 3 cm above the soil surface, treated by application of test compounds directly to the paddy water, and then maintained at that water depth for the duration of the test. Treated plants and controls were maintained in a greenhouse for 13 to 14 days, after which time all species were compared to controls and visually evaluated. Plant response ratings, summarized in Table D, are based on a scale of 0 to 100 where 0 is no effect and 100 is complete control. A dash (-) response means no test result.

ducksalad = assay: Test D flooded paddy test; format: in vivo, Heteranthera limosa; conditions: 250 g ai/ha, applied to paddy water, visual rating after 13 to 14 days, scale 0 to 100 (0 no effect, 100 complete control)
Method: as §2

sedge, umbrella = assay: Test D flooded paddy test; format: in vivo, Cyperus difformis; conditions: 250 g ai/ha, applied to paddy water, visual rating after 13 to 14 days, scale 0 to 100 (0 no effect, 100 complete control)
Method: as §2

green foxtail [23] = assay: Test C postemergence; format: in vivo, Setaria viridis; conditions: 10 days, 0 to 100 scale (0 no effect, 100 complete control)
Outline: as §1

[24] = 125 g ai/ha, postemergence, 0 to 100 scale, 0 no effect, 100 complete control
[25] = Preemergence, 125 g ai/ha, 0 to 100 scale, 0 no effect, 100 complete control
[26] = 500 g ai/ha, postemergence, 0 to 100 scale (0 no effect, 100 complete control)
[27] = Postemergence, 125 g ai/ha, 0 to 100 scale (0 no effect, 100 complete control)

COC[C@H]1CN(C(=O)c2cc(-n3cnc(C(C)(C)C)n3)ccc2OC)c2cccc(Cl)c2O1 [Compound 230]
98: Plant response rating, Sedge, Umbrella (Flood) (sedge, umbrella)
90: Soybean plant response rating (soybean [10]; Test C, 125 g ai/ha) | Plant response rating, Kochia (kochia [15]; [24]) | Plant response rating, Ragweed (ragweed [18]; [24])
0: Kochia plant response rating (kochia [5]; Test C, 125 g ai/ha)
60: Barnyardgrass plant response rating (barnyardgrass [1]; Test C, 125 g ai/ha) | Ragweed plant response rating (ragweed [8]; Test C, 125 g ai/ha) | Plant response rating, Barnyardgrass (barnyardgrass [12]; [24]) | Plant response rating, Corn (corn [14]; [24]) | Plant response rating, Ryegrass, Italian (ryegrass, Italian [19]; [24])
50: Oat, Wild plant response rating (oat, wild [6]; Test C, 125 g ai/ha)
80: Ryegrass, Italian plant response rating (ryegrass, Italian [9]; Test C, 125 g ai/ha)
30: Wheat plant response rating (wheat [11]; Test C, 125 g ai/ha)
70: Blackgrass plant response rating (blackgrass [2]; Test C, 125 g ai/ha) | Plant response rating, Ducksalad (Flood) (ducksalad)
15: Plant response rating, Barnyardgrass (Flood) (barnyardgrass [22])
40: Plant response rating, Blackgrass (blackgrass [13]; [24]) | Plant response rating, Wheat (wheat [21]; [24]) | Plant response rating, Horseweed (horseweed; [24])
20: Corn plant response rating (corn [3]; Test C, 125 g ai/ha) | Plant response rating, Oat, Wild (oat, wild [16]; [24])
100: Foxtail, Green plant response rating (green foxtail [4]; Test C, 125 g ai/ha) | Pigweed, Palmer plant response rating (pigweed, palmer [7]; Test C, 125 g ai/ha) | Plant response rating, Pigweed, Palmer (pigweed, palmer [17]; [24]) | Plant response rating, Soybean (soybean [20]; [24]) | Plant response rating, Galium (galium; [24])

CC(C)c1ncn(-c2ccc(S(C)(=O)=O)c(C(=O)N3C[C@H](C)Oc4c(Cl)cccc43)c2)n1 [Compound 393]
40: Plant response rating, Barnyardgrass (barnyardgrass [1]; [25]) | Oat, Wild plant response rating (oat, wild [6]; 500 g ai/ha) | Soybean plant response rating (soybean [10]; 500 g ai/ha) | Plant response rating, Oat, Wild (oat, wild [16]; [26])
10: Plant response rating, Foxtail, Green (green foxtail [23]; Postemergence, 125 g ai/ha) | Plant response rating, Ryegrass, Italian (ryegrass, Italian [19]; [27]) | Plant response rating, Wheat (wheat [21]; [27])
90: Kochia plant response rating (kochia [5]; 500 g ai/ha) | Ryegrass, Italian plant response rating (ryegrass, Italian [9]; 500 g ai/ha) | Plant response rating, Kochia (kochia [15]; [26]) | Plant response rating, Pigweed, Palmer (pigweed, palmer [17]; [26])
80: Plant response rating, Foxtail, Green (green foxtail [4]; [25]) | Plant response rating, Kochia (kochia [5]; [25]) | Plant response rating, Pigweed, Palmer (pigweed, palmer [7]; [25]) | Plant response rating, Ryegrass, Italian (ryegrass, Italian [19]; [26])
20: Blackgrass plant response rating (blackgrass [2]; 500 g ai/ha) | Plant response rating, Blackgrass (blackgrass [2]; [25]) | Corn plant response rating (corn [3]; 500 g ai/ha) | Plant response rating, Soybean (soybean [10]; [25]) | Plant response rating, Corn (corn [14]; [27]) | Plant response rating, Wheat (wheat [21]; [26]) | Plant response rating, Horseweed (horseweed; [26])
70: Barnyardgrass plant response rating (barnyardgrass [1]; 500 g ai/ha) | Plant response rating, Foxtail, Green (green foxtail [23]; 500 g ai/ha, postemergence) | Plant response rating, Kochia (kochia [15]; [27]) | Plant response rating, Ragweed (ragweed [18]; [26]) | Plant response rating, Soybean (soybean [20]; [27]) | Plant response rating, Galium (galium; [27])
100: Foxtail, Green plant response rating (green foxtail [4]; 500 g ai/ha) | Pigweed, Palmer plant response rating (pigweed, palmer [7]; 500 g ai/ha) | Plant response rating, Soybean (soybean [20]; [26]) | Plant response rating, Galium (galium; [26])
60: Plant response rating, Pigweed, Palmer (pigweed, palmer [17]; [27]) | Plant response rating, Ragweed (ragweed [18]; [27])
50: Plant response rating, Barnyardgrass (barnyardgrass [12]; [26]) | Plant response rating, Corn (corn [14]; [26])
0: Plant response rating, Corn (corn [3]; [25]) | Plant response rating, Oat, Wild (oat, wild [6]; [25]) | Ragweed plant response rating (ragweed [8]; 500 g ai/ha) | Plant response rating, Ragweed (ragweed [8]; [25]) | Plant response rating, Ryegrass, Italian (ryegrass, Italian [9]; [25]) | Plant response rating, Wheat (wheat [11]; [25]) | Plant response rating, Blackgrass (blackgrass [13]; [26]) | Plant response rating, Blackgrass (blackgrass [13]; [27]) | Plant response rating, Oat, Wild (oat, wild [16]; [27]) | Plant response rating, Horseweed (horseweed; [27])
30: Wheat plant response rating (wheat [11]; 500 g ai/ha) | Plant response rating, Barnyardgrass (barnyardgrass [12]; [27])
